According to PMC7071059, “Targeting Receptor Tyrosine Kinase VEGFR-2 in Hepatocellular Cancer: Rational Design, Synthesis and Biological Evaluation of 1,2-Disubstituted Benzimidazoles” (Molecules, 2020):

Key:
HepG2 cell line = experiment: In vitro cytotoxic activity, Sulfo-Rhodamine-B (SRB) assay; type: cell-based, human; conditions: Homo sapiens, HepG2, 48 h, SRB assay, 48 h; mean of three independent experiments; read-out: IC50 (μM) on HepG2 Cell Line
NCI-H23 = experiment: NCI 60 one dose (10 μM) anticancer assay; type: cell-based; conditions: Homo sapiens, 10 µM one dose, Non-small cell lung Cancer, read-out: Growth Inhibition % NCI-H23
Procedure: (§1) Some of the synthesized compounds were selected by the NCI, Bethesda, MD, USA for evaluation of their anticancer activity. An in vitro one dose (10 μM) anticancer assay was conducted on a full NCI 60-cell line panel derived from 9 different cancer types. Table 2 presents the percent of growth inhibition of some cell lines. […] K-562 and MOLT-4 from leukemia, NCI-H522 from non-small cell lung cancer, HCT-116 from colon cancer, SK-MEL-5 and UACC-62 from melanoma, UO-31 from renal cancer, PC-3 from prostate cancer and HS 578T and T-47D from breast cancer are the most sensitive cell lines to the tested compounds. No growth inhibition was observed from the selected compounds against COLO205, HCC-2998, MALME-3M, SK-MEL-28, DU-145 and BT-549 cell lines. […] Against UO-31 from renal cancer and PC-3 from prostate cancer, it inhibited the growth of 44% and 58% of the cancer cells, respectively.

U251 = experiment: NCI 60 one dose (10 μM) anticancer assay; type: cell-based; conditions: Homo sapiens, U-251; 10 µM one dose; CNS Cancer; read-out: Growth Inhibition % U251
Procedure: as §1

SNB-75 = experiment: NCI 60 one dose (10 μM) anticancer assay; type: cell-based; conditions: Homo sapiens, 10 µM one dose, CNS Cancer, read-out: Growth Inhibition % SNB-75
Procedure: as §1

NCI/ADR-RES = experiment: NCI 60 one dose (10 μM) anticancer assay; type: cell-based; conditions: Homo sapiens, 10 µM one dose, Ovarian Cancer, read-out: Growth Inhibition % NCI/ADR-RES
Procedure: as §1

HL-60(TB) = experiment: NCI 60 one dose (10 μM) anticancer assay; type: cell-based; conditions: Homo sapiens, 10 µM one dose, Leukemia, read-out: Growth Inhibition % HL-60(TB)
Procedure: as §1

MDA-MB-468 = experiment: NCI 60 one dose (10 μM) anticancer assay; type: cell-based; conditions: Homo sapiens, 10 µM one dose, Breast Cancer, read-out: Growth Inhibition % MDA-MB-468
Procedure: as §1

EKVX = experiment: NCI 60 one dose (10 μM) anticancer assay; type: cell-based; conditions: Homo sapiens, 10 µM one dose, Non-small cell lung Cancer, read-out: Growth Inhibition % EKVX
Procedure: as §1

MDA-MB-435 = experiment: NCI 60 one dose (10 μM) anticancer assay; type: cell-based; conditions: Homo sapiens, 10 µM one dose, Melanoma, read-out: Growth Inhibition % MDA-MB-435
Procedure: as §1

HCT-15 = experiment: NCI 60 one dose (10 μM) anticancer assay; type: cell-based; conditions: Homo sapiens, 10 µM one dose, Colon Cancer, read-out: Growth Inhibition % HCT-15
Procedure: as §1

786-0 = experiment: NCI 60 one dose (10 μM) anticancer assay; type: cell-based; conditions: Homo sapiens, 10 µM one dose, Renal Cancer, read-out: Growth Inhibition % 786-0
Procedure: as §1

TK-10 = experiment: NCI 60 one dose (10 μM) anticancer assay; type: cell-based; conditions: Homo sapiens, 10 µM one dose, Renal Cancer, read-out: Growth Inhibition % TK-10
Procedure: as §1

HOP-62 = experiment: NCI 60 one dose (10 μM) anticancer assay; type: cell-based; conditions: Homo sapiens, 10 µM one dose, Non-small cell lung Cancer, read-out: Growth Inhibition % HOP-62
Procedure: as §1

NCI-H522 = experiment: NCI 60 one dose (10 μM) anticancer assay; type: cell-based; conditions: Homo sapiens, 10 µM one dose, Non-small cell lung Cancer, read-out: Growth Inhibition % NCI-H522
Procedure: as §1

SR = experiment: NCI 60 one dose (10 μM) anticancer assay; type: cell-based; conditions: Homo sapiens, 10 µM one dose, Leukemia, read-out: Growth Inhibition % SR
Procedure: as §1

SF-268 = experiment: NCI 60 one dose (10 μM) anticancer assay; type: cell-based; conditions: Homo sapiens, 10 µM one dose, CNS Cancer, read-out: Growth Inhibition % SF-268
Procedure: as §1

LOX IMVI = experiment: NCI 60 one dose (10 μM) anticancer assay; type: cell-based; conditions: Homo sapiens, 10 µM one dose, Melanoma, read-out: Growth Inhibition % LOX IMVI
Procedure: as §1

UO-31 = experiment: NCI 60 one dose (10 μM) anticancer assay; type: cell-based; conditions: Homo sapiens, 10 µM one dose, Renal Cancer, read-out: Growth Inhibition % UO-31
Procedure: as §1

A549/ATTC = experiment: NCI 60 one dose (10 μM) anticancer assay; type: cell-based; conditions: Homo sapiens, 10 µM one dose, Non-small cell lung Cancer, read-out: Growth Inhibition % A549/ATTC
Procedure: as §1

K-562 = experiment: NCI 60 one dose (10 μM) anticancer assay; type: cell-based; conditions: Homo sapiens, K562; 10 µM one dose; Leukemia; read-out: Growth Inhibition % K-562
Procedure: as §1

SNB-19 = experiment: NCI 60 one dose (10 μM) anticancer assay; type: cell-based; conditions: Homo sapiens, 10 µM one dose, CNS Cancer, read-out: Growth Inhibition % SNB-19
Procedure: as §1

OVCAR-4 = experiment: NCI 60 one dose (10 μM) anticancer assay; type: cell-based; conditions: Homo sapiens, 10 µM one dose, Ovarian Cancer, read-out: Growth Inhibition % OVCAR-4
Procedure: as §1

MDA-MB-231/ATTC = experiment: NCI 60 one dose (10 μM) anticancer assay; type: cell-based; conditions: Homo sapiens, 10 µM one dose, Breast Cancer, read-out: Growth Inhibition % MDA-MB-231/ATTC
Procedure: as §1

KM12 = experiment: NCI 60 one dose (10 μM) anticancer assay; type: cell-based; conditions: Homo sapiens, 10 µM one dose, Colon Cancer, read-out: Growth Inhibition % KM12
Procedure: as §1

OVCAR-8 = experiment: NCI 60 one dose (10 μM) anticancer assay; type: cell-based; conditions: Homo sapiens, 10 µM one dose, Ovarian Cancer, read-out: Growth Inhibition % OVCAR-8
Procedure: as §1

HS 578T = experiment: NCI 60 one dose (10 μM) anticancer assay; type: cell-based; conditions: Homo sapiens, 10 µM one dose, Breast Cancer, read-out: Growth Inhibition % HS 578T
Procedure: as §1

NCI-H226 = experiment: NCI 60 one dose (10 μM) anticancer assay; type: cell-based; conditions: Homo sapiens, 10 µM one dose, Non-small cell lung Cancer, read-out: Growth Inhibition % NCI-H226
Procedure: as §1

PC-3 = experiment: NCI 60 one dose (10 μM) anticancer assay; type: cell-based; conditions: Homo sapiens, 10 µM one dose, Prostate Cancer, read-out: Growth Inhibition % PC-3
Procedure: as §1

SW-620 = experiment: NCI 60 one dose (10 μM) anticancer assay; type: cell-based; conditions: Homo sapiens, 10 µM one dose, Colon Cancer, read-out: Growth Inhibition % SW-620
Procedure: as §1

| SMILES | IC50 (HepG2 cell line) [µM] | inhibition at 10 µM (NCI-H23) [%] | inhibition at 10 µM (U251) [%] | inhibition at 10 µM (SNB-75) [%] | inhibition at 10 µM (NCI/ADR-RES) [%] | inhibition at 10 µM (HL-60(TB)) [%] | inhibition at 10 µM (MDA-MB-468) [%] | inhibition at 10 µM (EKVX) [%] | inhibition at 10 µM (MDA-MB-435) [%] | inhibition at 10 µM (HCT-15) [%] | inhibition at 10 µM (786-0) [%] | inhibition at 10 µM (TK-10) [%] | inhibition at 10 µM (HOP-62) [%] | inhibition at 10 µM (NCI-H522) [%] | inhibition at 10 µM (SR) [%] | inhibition at 10 µM (SF-268) [%] | inhibition at 10 µM (LOX IMVI) [%] | inhibition at 10 µM (UO-31) [%] | inhibition at 10 µM (A549/ATTC) [%] | inhibition at 10 µM (K-562) [%] | other results |
| --- | --- | --- | --- | --- | --- | --- | --- | --- | --- | --- | --- | --- | --- | --- | --- | --- | --- | --- | --- | --- | --- |
| COc1cc(/C=N/NC(=O)Cn2c(C(C)C)nc3ccccc32)ccc1OCc1ccccc1 [Compound 17e, (E)-N′-(4-(Benzyloxy)-3-methoxybenzylidene)-2-(2-isopropyl-1H-benzo[d]imidazol-1-yl)acetohydrazide] | 24.1 | < 10 | < 10 | < 10 | < 10 | < 10 | < 10 | < 10 | < 10 | < 10 | < 10 | < 10 | < 10 | 32 | < 10 | < 10 | < 10 | 20 | < 10 | 25 | inhibition at 10 µM (SNB-19): < 10%; inhibition at 10 µM (OVCAR-4): < 10%; inhibition at 10 µM (MDA-MB-231/ATTC): < 10%; inhibition at 10 µM (KM12): < 10%; inhibition at 10 µM (OVCAR-8): < 10%; inhibition at 10 µM (HS 578T): < 10%; inhibition at 10 µM (NCI-H226): < 10%; inhibition at 10 µM (PC-3): 20%; inhibition at 10 µM (SW-620): < 10%; melting point: 180 to 182 °C |
| COc1cc(/C=N/NC(=O)Cn2c(-c3ccc(C)o3)nc3ccccc32)ccc1OCc1ccccc1 [Compound 17f, (E)-N′-(4-(Benzyloxy)-3-methoxybenzylidene)-2-(2-(5-methylfuran-2-yl)-1H-benzo[d]imidazol-1-yl)acetohydrazide] | 42.5 | < 10 | < 10 | 17 | < 10 | < 10 | 23 | 25 | < 10 | 26 | < 10 | < 10 | < 10 | 26 | 25 | 24 | < 10 | 38 | 27 | 34 | inhibition at 10 µM (SNB-19): 20%; inhibition at 10 µM (OVCAR-4): < 10%; inhibition at 10 µM (MDA-MB-231/ATTC): 21%; inhibition at 10 µM (KM12): 15%; inhibition at 10 µM (OVCAR-8): 19%; inhibition at 10 µM (HS 578T): 30%; inhibition at 10 µM (NCI-H226): 16%; inhibition at 10 µM (PC-3): 37%; inhibition at 10 µM (SW-620): < 10%; melting point: 139 to 141 °C |
